Source: paper PMC7358525, “Characterization of PF-6142, a Novel, Non-Catecholamine Dopamine Receptor D1 Agonist, in Murine and Nonhuman Primate Models of Dopaminergic Activation” (Frontiers in Pharmacology, 2020)

Experiments:
Type in all cases: in vivo
[1] = test system: ACh levels in the rat PFC; experiment: Prefrontal cortex acetylcholine levels via microdialysis, rat
Source text: Adult male Sprague-Dawley rats (280–360 g) were obtained from Charles-River Laboratories, Raleigh, NC and male C57BL/6J DRD1a WT and D1 DA receptor knockout mice (DRD1a-905781) were obtained from The Jackson Laboratories (Bar Harbor, ME). Animals were housed on a 12-h light/dark cycle with free access to food and water and allowed to acclimate for at least 5 d after arrival. Aseptic technique was used during the surgical procedure in order to prevent infection. On the day of the procedure animals were anesthetized with isoflurane (4%) and their heads shaved. The animals were then placed into a Kopf stereotaxic frame, the surgical area disinfected by swabbing with Provodine solution, and the area isolated with a sterile surgical drape. Anesthesia was maintained with isoflurane (2.5%–3%) delivered through a nose cone using a Univentor 400 anesthesia unit. Animals were given a 0.1 ml subcutaneous (s.c.) injection of Metacam (NSAID, meloxicam, 5 mg/ml, Boehringer Ingelheim) as a post-operative analgesic. Marcaine (bupivacaine, 0.5%, Hospira, Lake Forest, IL), a long acting local anesthetic, was administered s.c. at the surgical area to minimize pain and discomfort. […]
(§1) For conventional analysis, ACh was analyzed by high performance liquid chromatography (HPLC) utilizing a modification of the BAS ACh-choline assay kit (BAS part # MF-8910). […]

[2] = test system: acetylcholine levels in the PFC of WT and D1 KO mice; experiment: Prefrontal cortex acetylcholine levels via microdialysis, WT and D1 KO mouse; conditions: 10 mg/kg SC
Source text: Adult male Sprague-Dawley rats (280–360 g) were obtained from Charles-River Laboratories, Raleigh, NC and male C57BL/6J DRD1a WT and D1 DA receptor knockout mice (DRD1a-905781) were obtained from The Jackson Laboratories (Bar Harbor, ME). Animals were housed on a 12-h light/dark cycle with free access to food and water and allowed to acclimate for at least 5 d after arrival. Aseptic technique was used during the surgical procedure in order to prevent infection. On the day of the procedure animals were anesthetized with isoflurane (4%) and their heads shaved. The animals were then placed into a Kopf stereotaxic frame, the surgical area disinfected by swabbing with Provodine solution, and the area isolated with a sterile surgical drape. Anesthesia was maintained with isoflurane (2.5%–3%) delivered through a nose cone using a Univentor 400 anesthesia unit. Animals were given a 0.1 ml subcutaneous (s.c.) injection of Metacam (NSAID, meloxicam, 5 mg/ml, Boehringer Ingelheim) as a post-operative analgesic. Marcaine (bupivacaine, 0.5%, Hospira, Lake Forest, IL), a long acting local anesthetic, was administered s.c. at the surgical area to minimize pain and discomfort.
A 1.5–2 cm incision was made along the midline of the skull, beginning from a point just behind the eyes and running posterior. The skin was retracted with hemostats and the skull was further exposed using blunt dissection with cotton swabs. Bleeding capillaries were cauterized, and the skull dried with a sterile gauze sponge.
A microdialysis guide cannula [Bioanalytical Systems Inc (BAS), West Lafayette, IN, part # MD-2251] was placed into a guide holder on the stereotaxic frame and positioned over “Bregma”. The guide cannula was positioned over the PFC (A-P, +3.2 mm; M-L, +0.7 mm, left, relative to bregma) and the location marked on the skull. Using a 0.7 mm burr, a hole was made in the skull at the cannula position. […]
as §1

EEG oscillation power = experiment: Rat quantitative electroencephalography, freely moving; conditions: first 4 h
Source text: Model 4ET telemetry device components (Data Sciences International, St Paul, MN, USA) were bilaterally placed in subcutaneous pockets on the dorsal flank of adult male Sprague-Dawley rats (200–400 grams). Two pairs of leads were implanted superficially to burr holes drilled over the frontal cortex (stainless steel screws, Plastics One, Roanoke, VA at coordinates: A-P = +1.5 mm, M-L = 1.5 mm) and parietal cortex (coordinates: A-P = −3.7 mm, M-L = −2.2 mm), and the cerebellum bilaterally to be used as ground and reference for electroencephalographic (EEG) recordings. A stainless-steel wire (Plastics One, Roanoke, VA) was implanted into the neck muscle to monitor electromyogram (EMG). All recordings were performed inside the home cages of animals using RPC-2 telemetry receivers (Data Sciences International, St. Paul, MN) at a sampling rate of 500 Hz for data acquisition. Baseline data, while on vehicle, were obtained for 24 h prior to compound administration. PF-6142 (1.0 or 5.6 mg/kg, s.c.) was administered acutely following the baseline day.
Raw EEG traces were analyzed using custom scripts in MATLAB (The Mathworks, Natick, MA, version 7.8 (R2009a)) to evaluate spectral changes between treatment groups. Raw EEG data were read into the MATLAB software, segmented to match that of the polysomnography (PSG) data (see below) and fast Fourier transforms (FFTs) were performed. Only data collected on the parietal lead were the subject of statistical analyses. PSG analysis was applied to all EEG/EMG data and utilized an in-house algorithm developed in LabView (National Instruments, Austin TX) as previously described ([Harvey et al., 2013]).
Relative power data in each band aggregated over 2 h-long time bins, while on drug, were normalized to baseline levels in corresponding time bins relative to dosing. For statistical analysis the R software was used. The effects of two within factors, dose and time, on cumulative time spent in three stages, awake, REM, and NREM sleep were assessed using generalized linear mixed model. The model specification explicitly accounted for a crossover design with repeated measures by introducing auxiliary factors, day, treatment sequence, and day by time product. To account for correlations within subjects, we employed a first order autoregressive scheme, which assumes that correlations decay exponentially with the lag between the measurements. The model was fitted using the method of restricted maximum likelihood. Significant findings were followed by least significant difference tests for pairwise differences across doses and across doses at fixed times for treatment and treatment by time factors, respectively. Tukey-Kramer procedure was used to adjust for multiple hypothesis testing. For all statistical tests, p < 0.05 was considered significant. The same fixed factors and type of statistical model were used to explain cumulative power within EEG power bands; the power was log transformed before the analysis.

[3] = Plasma exposure (PK), rat; conditions: 10 mg/kg SC, 1.5 h
Protocol: Across the set of experiments, PK was either collected from satellite animals or in separate, dedicated studies. In addition to plasma PK, exposures were obtained in brain tissue for rat and mouse, and plasma protein binding and brain tissue binding were measured. Using the measured exposures, partitioning, and binding parameters, and the […]

[4] = significant only at 5.6 mg/kg s.c.

Compound: Cc1cc(Oc2nccc3occc23)ccc1-c1c(C)ncc2nccn12 [PF-6142]
- PF-6142 mediated increase in cortical ACh after repeated dosing (AUC 75-180 min, day 5) ([1]; 10 mg/kg SC for five consecutive days): maintained
- cortical ACh levels, time course ([1]; PF-6142 10 mg/kg SC acute on day 5 after subchronic vehicle, vs 5 d vehicle): increased cortical ACh levels
- PFC ACh levels vs vehicle (AUC 75-180 min) ([2]; D1 KO mice): not in the KO group
- PFC ACh levels vs vehicle (AUC 75-180 min) ([2]; WT mice): increased ACh levels
- delta oscillation power vs vehicle (EEG oscillation power; 5.6 mg/kg s.c.): significant delta power decrease
- power in other studied frequency bands (theta, alpha) (EEG oscillation power; 1.0 and 5.6 mg/kg s.c.): not found to change significantly
- beta oscillation power (EEG oscillation power; [4]): significant increase
- gamma oscillation power (EEG oscillation power; [4]): significant increase
- total power in the EEG signal (EEG oscillation power; [4]): decreased significantly
- PF-6142 plasma concentration [3]: 1260 ng/mL
